Literature values, collected in patent US20140366440A1, “METHOD FOR PRODUCING CLONE SEEDLINGS” (OKAYAMA PREFECTURE, priority 2009, published 2014).

Assays:
[1] = system: callus of a tobacco plant; settings: cited from earlier work
[2] = system: calluses of a Russell prairie gentian; settings: medium containing glutathione; cited from earlier work
[3] = system: calluses of a rice plant; settings: medium containing glutathione; cited from earlier work
[4] = system: Eucalyptus globulus elite tree; settings: in the presence of auxin; Sotelo and Monza, Agrociencia (2007); cited from earlier work

CCCCS(=N)(=O)CCC(N)C(=O)O (centres unmarked) [buthionine sulfoximine (BSO), buthionine sulfoximine, reference compound]
number of differentiation of adventitious buds per callus ([1]; addition of BSO): remarkably increases

N[C@@H](CCC(=O)N[C@@H](CS)C(=O)NCC(=O)O)C(=O)O [glutathione]
redifferentiation of callus [2]: promotes redifferentiation
forming an adventitious bud from callus ([1]; addition of glutathione of 1 mM): inhibits
redifferentiation of callus [3]: promotes redifferentiation

auxin
rooting rate [4]: ≤ 25%
